Measurements from ChEMBL document CHEMBL4507258 (2021).

Experiments:
[1] = test system: Phosphatidylinositol 4,5-bisphosphate 3-kinase catalytic subunit alpha isoform (Homo sapiens), P42336 [H1047L]; conditions: Compound concentration 1000.0 nM
[2] = test system: Epidermal growth factor receptor (Homo sapiens), P00533 [L858R]; conditions: Compound concentration 1000.0 nM
[3] = target: Calcium/calmodulin-dependent protein kinase kinase 1 (Homo sapiens) (UniProt Q8N5S9); conditions: Compound concentration 1000.0 nM
[4] = target: Alpha-1A adrenergic receptor (Homo sapiens) (UniProt P35348); conditions: Compound concentration 10.0 uM
Chain of Alpha-1A adrenergic receptor (Homo sapiens) (P35348 whole entry): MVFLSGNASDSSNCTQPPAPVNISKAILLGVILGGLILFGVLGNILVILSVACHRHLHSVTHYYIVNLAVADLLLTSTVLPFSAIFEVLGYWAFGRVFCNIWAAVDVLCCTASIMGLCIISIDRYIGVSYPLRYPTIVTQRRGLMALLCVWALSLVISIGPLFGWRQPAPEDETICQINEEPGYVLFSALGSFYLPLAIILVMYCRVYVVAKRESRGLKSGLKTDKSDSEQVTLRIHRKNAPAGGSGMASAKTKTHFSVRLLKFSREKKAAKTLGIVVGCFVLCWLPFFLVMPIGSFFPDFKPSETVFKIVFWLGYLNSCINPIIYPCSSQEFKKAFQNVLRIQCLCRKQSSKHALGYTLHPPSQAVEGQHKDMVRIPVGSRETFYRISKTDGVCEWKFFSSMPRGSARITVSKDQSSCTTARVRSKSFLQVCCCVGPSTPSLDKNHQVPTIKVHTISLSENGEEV

[5] = target: Dual specificity tyrosine-phosphorylation-regulated kinase 1B (Homo sapiens) (UniProt Q9Y463); conditions: Compound concentration 1000.0 nM
[6] = target: Calcium/calmodulin-dependent protein kinase type II subunit gamma (Homo sapiens) (UniProt Q13555); conditions: Compound concentration 1000.0 nM
[7] = test system: Mast/stem cell growth factor receptor Kit (Homo sapiens), P10721 [L576P]; conditions: Compound concentration 1000.0 nM
[8] = target: Mitogen-activated protein kinase kinase kinase 10 (Homo sapiens) (UniProt Q02779); conditions: Compound concentration 1000.0 nM
[9] = target: Sigma intracellular receptor 2 (Homo sapiens) (UniProt Q5BJF2); conditions: Compound concentration 10.0 uM
[10] = target: Ribosomal protein S6 kinase alpha-2 (Homo sapiens) (UniProt Q15349); conditions: Compound concentration 1000.0 nM
[11] = target: Serine/threonine-protein kinase ULK3 (Homo sapiens) (UniProt Q6PHR2); conditions: Compound concentration 1000.0 nM
[12] = target: 5'-AMP-activated protein kinase catalytic subunit alpha-2 (Homo sapiens) (UniProt P54646); conditions: Compound concentration 1000.0 nM
[13] = target: Serine/threonine-protein kinase 25 (Homo sapiens) (UniProt O00506); conditions: Compound concentration 1000.0 nM
[14] = target: Receptor tyrosine-protein kinase erbB-4 (Homo sapiens) (UniProt Q15303); conditions: Compound concentration 1000.0 nM
[15] = target: Serine/threonine-protein kinase Nek7 (Homo sapiens) (UniProt Q8TDX7); conditions: Compound concentration 1000.0 nM
[16] = target: Protein kinase C theta type (Homo sapiens) (UniProt Q04759); conditions: Compound concentration 1000.0 nM
[17] = target: Serine/threonine-protein kinase D2 (Homo sapiens) (UniProt Q9BZL6); conditions: Compound concentration 1000.0 nM
[18] = target: Proto-oncogene tyrosine-protein kinase ROS (Homo sapiens) (UniProt P08922); conditions: Compound concentration 1000.0 nM
[19] = target: Serine/threonine-protein kinase MARK2 (Homo sapiens) (UniProt Q7KZI7); conditions: Compound concentration 1000.0 nM
[20] = target: Glycogen synthase kinase-3 alpha (Homo sapiens) (UniProt P49840); conditions: Compound concentration 1000.0 nM
[21] = target: Serine/threonine-protein kinase RIO2 (Homo sapiens) (UniProt Q9BVS4); conditions: Compound concentration 1000.0 nM
[22] = target: Dual specificity mitogen-activated protein kinase kinase 6 (Homo sapiens) (UniProt P52564); conditions: Compound concentration 1000.0 nM
[23] = test system: Hepatocyte growth factor receptor (Homo sapiens), P08581 [M1250T]; conditions: Compound concentration 1000.0 nM
[24] = target: Mitogen-activated protein kinase 4 (Homo sapiens) (UniProt P31152); conditions: Compound concentration 1000.0 nM
Chain of Mitogen-activated protein kinase 4 (Homo sapiens) (P31152 whole entry): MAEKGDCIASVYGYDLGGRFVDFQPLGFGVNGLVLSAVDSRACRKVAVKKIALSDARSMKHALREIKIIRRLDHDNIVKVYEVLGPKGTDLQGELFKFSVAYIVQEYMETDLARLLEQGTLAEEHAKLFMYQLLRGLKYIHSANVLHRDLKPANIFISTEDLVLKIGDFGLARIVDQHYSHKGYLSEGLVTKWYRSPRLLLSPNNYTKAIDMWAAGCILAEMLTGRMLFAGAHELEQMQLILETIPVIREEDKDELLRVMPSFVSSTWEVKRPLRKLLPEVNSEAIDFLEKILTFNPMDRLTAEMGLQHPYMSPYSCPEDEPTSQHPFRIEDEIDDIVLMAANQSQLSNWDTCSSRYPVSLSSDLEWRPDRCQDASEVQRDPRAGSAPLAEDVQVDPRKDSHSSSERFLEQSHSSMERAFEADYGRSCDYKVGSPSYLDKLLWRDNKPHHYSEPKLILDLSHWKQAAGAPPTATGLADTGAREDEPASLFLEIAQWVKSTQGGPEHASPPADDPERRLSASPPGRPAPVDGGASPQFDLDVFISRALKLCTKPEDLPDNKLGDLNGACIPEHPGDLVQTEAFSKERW

[25] = target: STE20/SPS1-related proline-alanine-rich protein kinase (Homo sapiens) (UniProt Q9UEW8); conditions: Compound concentration 1000.0 nM
[26] = target: Fibroblast growth factor receptor 3 (Homo sapiens) (UniProt P22607); conditions: Compound concentration 1000.0 nM
[27] = target: Serine/threonine-protein kinase PAK 3 (Homo sapiens) (UniProt O75914); conditions: Compound concentration 1000.0 nM
[28] = target: Dual specificity tyrosine-phosphorylation-regulated kinase 2 (Homo sapiens) (UniProt Q92630); conditions: Compound concentration 1000.0 nM
Chain of Dual specificity tyrosine-phosphorylation-regulated kinase 2 (Homo sapiens) (Q92630 whole entry): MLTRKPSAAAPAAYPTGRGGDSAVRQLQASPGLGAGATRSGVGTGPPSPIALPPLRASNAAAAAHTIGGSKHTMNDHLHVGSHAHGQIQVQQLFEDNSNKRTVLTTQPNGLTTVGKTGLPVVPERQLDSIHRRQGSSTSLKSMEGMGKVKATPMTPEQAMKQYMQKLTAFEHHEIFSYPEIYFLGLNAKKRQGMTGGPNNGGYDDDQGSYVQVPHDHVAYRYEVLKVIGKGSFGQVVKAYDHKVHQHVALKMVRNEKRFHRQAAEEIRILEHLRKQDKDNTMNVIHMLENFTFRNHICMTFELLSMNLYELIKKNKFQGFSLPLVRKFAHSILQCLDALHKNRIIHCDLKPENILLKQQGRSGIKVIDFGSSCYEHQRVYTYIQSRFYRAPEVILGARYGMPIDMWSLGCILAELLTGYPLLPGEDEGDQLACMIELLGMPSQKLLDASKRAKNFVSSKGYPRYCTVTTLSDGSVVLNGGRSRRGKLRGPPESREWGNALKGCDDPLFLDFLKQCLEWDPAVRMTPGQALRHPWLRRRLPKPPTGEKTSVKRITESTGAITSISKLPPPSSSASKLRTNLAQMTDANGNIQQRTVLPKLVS

[29] = target: NT-3 growth factor receptor (Homo sapiens) (UniProt Q16288); conditions: Compound concentration 1000.0 nM
[30] = target: Protein kinase C eta type (Homo sapiens) (UniProt P24723); conditions: Compound concentration 1000.0 nM
Chain of Protein kinase C eta type (Homo sapiens) (P24723 whole entry, the tested form may be a part): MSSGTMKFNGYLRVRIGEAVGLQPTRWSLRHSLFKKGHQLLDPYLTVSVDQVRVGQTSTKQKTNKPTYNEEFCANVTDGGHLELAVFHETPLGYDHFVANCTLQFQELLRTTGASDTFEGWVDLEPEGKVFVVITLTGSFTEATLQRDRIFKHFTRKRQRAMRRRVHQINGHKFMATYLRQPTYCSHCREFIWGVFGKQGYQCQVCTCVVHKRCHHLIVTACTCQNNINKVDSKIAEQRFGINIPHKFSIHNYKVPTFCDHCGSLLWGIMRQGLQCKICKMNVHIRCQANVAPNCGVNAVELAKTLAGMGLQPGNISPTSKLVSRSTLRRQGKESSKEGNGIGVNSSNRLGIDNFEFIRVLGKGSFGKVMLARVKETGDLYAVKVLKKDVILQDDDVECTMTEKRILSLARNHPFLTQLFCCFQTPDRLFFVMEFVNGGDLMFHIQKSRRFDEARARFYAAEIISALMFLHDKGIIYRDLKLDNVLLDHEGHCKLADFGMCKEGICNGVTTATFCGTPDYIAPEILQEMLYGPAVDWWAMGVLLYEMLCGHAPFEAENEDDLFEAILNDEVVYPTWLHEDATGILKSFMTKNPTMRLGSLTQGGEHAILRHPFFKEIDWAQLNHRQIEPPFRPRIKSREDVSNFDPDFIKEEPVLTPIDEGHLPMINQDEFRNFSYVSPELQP

[31] = target: LIM domain kinase 1 (Homo sapiens) (UniProt P53667); conditions: Compound concentration 1000.0 nM
Chain of LIM domain kinase 1 (Homo sapiens) (P53667 whole entry, looked up, the tested form may be a part): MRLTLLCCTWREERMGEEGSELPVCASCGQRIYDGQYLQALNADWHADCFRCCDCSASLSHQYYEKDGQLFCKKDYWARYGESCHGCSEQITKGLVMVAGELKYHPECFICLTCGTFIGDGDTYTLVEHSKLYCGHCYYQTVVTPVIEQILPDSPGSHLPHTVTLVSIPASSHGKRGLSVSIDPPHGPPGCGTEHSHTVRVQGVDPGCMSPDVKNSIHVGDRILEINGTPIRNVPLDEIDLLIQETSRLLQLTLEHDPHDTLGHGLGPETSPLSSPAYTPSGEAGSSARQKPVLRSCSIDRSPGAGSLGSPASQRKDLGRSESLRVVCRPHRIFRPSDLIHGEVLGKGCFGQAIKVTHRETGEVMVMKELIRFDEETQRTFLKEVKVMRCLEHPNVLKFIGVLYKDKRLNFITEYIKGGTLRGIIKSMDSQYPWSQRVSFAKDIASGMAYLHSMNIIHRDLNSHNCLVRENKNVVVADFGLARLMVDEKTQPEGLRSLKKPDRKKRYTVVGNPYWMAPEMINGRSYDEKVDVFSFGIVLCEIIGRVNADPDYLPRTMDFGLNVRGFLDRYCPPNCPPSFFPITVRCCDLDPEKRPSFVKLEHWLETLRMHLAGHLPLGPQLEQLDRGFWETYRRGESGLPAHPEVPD

[32] = target: Serine/threonine-protein kinase D3 (Homo sapiens) (UniProt O94806); conditions: Compound concentration 1000.0 nM
Chain of Serine/threonine-protein kinase D3 (Homo sapiens) (O94806 whole entry): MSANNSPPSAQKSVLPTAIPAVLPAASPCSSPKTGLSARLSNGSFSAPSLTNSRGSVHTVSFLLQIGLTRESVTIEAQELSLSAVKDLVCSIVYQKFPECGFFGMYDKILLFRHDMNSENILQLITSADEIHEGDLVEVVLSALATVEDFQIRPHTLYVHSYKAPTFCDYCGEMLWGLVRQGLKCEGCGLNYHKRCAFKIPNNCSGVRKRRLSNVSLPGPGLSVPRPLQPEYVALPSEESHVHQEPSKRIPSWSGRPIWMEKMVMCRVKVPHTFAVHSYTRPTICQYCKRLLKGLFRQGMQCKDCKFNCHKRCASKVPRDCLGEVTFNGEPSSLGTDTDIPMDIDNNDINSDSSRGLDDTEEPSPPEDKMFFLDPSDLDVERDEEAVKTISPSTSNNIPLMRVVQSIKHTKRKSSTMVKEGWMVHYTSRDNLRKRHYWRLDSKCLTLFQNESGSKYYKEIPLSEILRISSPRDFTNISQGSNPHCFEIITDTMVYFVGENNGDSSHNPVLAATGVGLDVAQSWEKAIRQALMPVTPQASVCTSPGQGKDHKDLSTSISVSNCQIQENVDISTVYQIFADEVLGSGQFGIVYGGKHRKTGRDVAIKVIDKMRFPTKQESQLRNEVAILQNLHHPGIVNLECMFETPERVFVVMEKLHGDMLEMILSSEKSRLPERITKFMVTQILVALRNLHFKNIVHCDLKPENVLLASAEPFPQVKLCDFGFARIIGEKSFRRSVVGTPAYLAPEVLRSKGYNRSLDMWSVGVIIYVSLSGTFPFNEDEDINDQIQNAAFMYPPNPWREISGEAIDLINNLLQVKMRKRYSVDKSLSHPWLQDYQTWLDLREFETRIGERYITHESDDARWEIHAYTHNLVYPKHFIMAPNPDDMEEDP

[33] = target: Serine/threonine-protein kinase PLK3 (Homo sapiens) (UniProt Q9H4B4); conditions: Compound concentration 1000.0 nM
[34] = target: Muscarinic acetylcholine receptor M3 (Homo sapiens) (UniProt P20309); conditions: Compound concentration 10.0 uM
[35] = target: Ribosomal protein S6 kinase alpha-6 (Homo sapiens) (UniProt Q9UK32); conditions: Compound concentration 1000.0 nM
[36] = target: Uncharacterized serine/threonine-protein kinase SBK3 (Homo sapiens) (UniProt P0C264); conditions: Compound concentration 1000.0 nM
[37] = test system: Mast/stem cell growth factor receptor Kit (Homo sapiens), P10721 [V559D,V654A]; conditions: Compound concentration 1000.0 nM
[38] = target: Mitogen-activated protein kinase kinase kinase 5 (Homo sapiens) (UniProt Q99683); conditions: Compound concentration 1000.0 nM
[39] = test system: Epidermal growth factor receptor (Homo sapiens), P00533 [UNDEFINED MUTATION]; conditions: Compound concentration 1000.0 nM
[40] = target: Activin receptor type-2B (Homo sapiens) (UniProt Q13705); conditions: Compound concentration 1000.0 nM
Chain of Activin receptor type-2B (Homo sapiens) (Q13705 whole entry): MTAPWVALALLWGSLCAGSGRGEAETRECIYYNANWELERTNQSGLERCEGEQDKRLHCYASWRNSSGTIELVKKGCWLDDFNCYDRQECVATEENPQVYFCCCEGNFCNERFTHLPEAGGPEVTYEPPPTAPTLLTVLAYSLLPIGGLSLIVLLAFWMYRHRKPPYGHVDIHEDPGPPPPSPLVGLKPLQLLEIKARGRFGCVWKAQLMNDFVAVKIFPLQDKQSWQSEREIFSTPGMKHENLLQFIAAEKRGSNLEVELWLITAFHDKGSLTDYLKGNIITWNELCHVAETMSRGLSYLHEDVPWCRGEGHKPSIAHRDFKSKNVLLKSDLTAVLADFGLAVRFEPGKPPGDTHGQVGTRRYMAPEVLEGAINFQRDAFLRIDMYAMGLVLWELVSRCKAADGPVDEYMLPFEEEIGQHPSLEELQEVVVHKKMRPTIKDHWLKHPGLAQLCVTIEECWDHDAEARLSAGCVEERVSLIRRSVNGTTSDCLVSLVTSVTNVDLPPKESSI

[41] = target: Mitogen-activated protein kinase 12 (Homo sapiens) (UniProt P53778); conditions: Compound concentration 1000.0 nM
[42] = target: Tyrosine-protein kinase receptor Tie-1 (Homo sapiens) (UniProt P35590); conditions: Compound concentration 1000.0 nM
[43] = target: Megakaryocyte-associated tyrosine-protein kinase (Homo sapiens) (UniProt P42679); conditions: Compound concentration 1000.0 nM
[44] = target: Ephrin type-B receptor 2 (Homo sapiens) (UniProt P29323); conditions: Compound concentration 1000.0 nM
[45] = target: Tyrosine-protein kinase Tec (Homo sapiens) (UniProt P42680); conditions: Compound concentration 1000.0 nM
Chain of Tyrosine-protein kinase Tec (Homo sapiens) (P42680 whole entry): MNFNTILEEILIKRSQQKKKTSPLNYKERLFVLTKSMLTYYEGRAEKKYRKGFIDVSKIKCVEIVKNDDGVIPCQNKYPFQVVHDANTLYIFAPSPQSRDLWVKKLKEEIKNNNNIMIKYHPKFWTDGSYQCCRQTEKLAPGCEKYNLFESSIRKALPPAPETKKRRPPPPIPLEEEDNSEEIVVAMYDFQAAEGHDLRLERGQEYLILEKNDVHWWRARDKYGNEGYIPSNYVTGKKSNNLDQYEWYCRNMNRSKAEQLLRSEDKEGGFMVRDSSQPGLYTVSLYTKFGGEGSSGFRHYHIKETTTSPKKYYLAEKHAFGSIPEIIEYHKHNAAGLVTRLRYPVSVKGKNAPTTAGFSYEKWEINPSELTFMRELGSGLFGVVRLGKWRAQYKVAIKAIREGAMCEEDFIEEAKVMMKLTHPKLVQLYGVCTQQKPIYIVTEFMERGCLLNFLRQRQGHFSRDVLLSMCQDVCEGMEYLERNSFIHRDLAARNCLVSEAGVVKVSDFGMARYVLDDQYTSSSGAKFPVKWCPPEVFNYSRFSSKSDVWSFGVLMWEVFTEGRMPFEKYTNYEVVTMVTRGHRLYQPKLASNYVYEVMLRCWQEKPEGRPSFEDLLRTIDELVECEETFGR

CCCCN(CCCC)C(=O)CN1C[C@@H](c2cc(OC)c3c(c2)OCO3)[C@H](C(=O)O)[C@H]1CC(C)(C)CCC [A-545]
active: residual activity [30] 0%
inactive: residual activity [1] 62.4% | residual activity [2] 100% | residual activity [3] 100% | inhibition [4] 23.3% | residual activity [5] 95% | residual activity [6] 94.3% | residual activity [7] 100% | residual activity [8] 65.4% | inhibition [9] 41.3% | residual activity [10] 90.2% | residual activity [11] 90.7% | residual activity [12] 92.6% | residual activity [13] 88.1% | residual activity [14] 95% | residual activity [15] 86.6% | residual activity [16] 78.6% | residual activity [17] 90.6% | residual activity [18] 100% | residual activity [19] 100% | residual activity [20] 79.9% | residual activity [21] 83.2% | residual activity [22] 90.8% | residual activity [23] 100% | residual activity [24] 100% | residual activity [25] 100% | residual activity [26] 88.5% | residual activity [27] 89.4% | residual activity [28] 82.9% | residual activity [29] 87.6% | residual activity [31] 99% | residual activity [32] 100% | residual activity [33] 93.5% | inhibition [34] 10.3% | residual activity [35] 96.6% | residual activity [36] 100% | residual activity [37] 100% | residual activity [38] 100% | residual activity [39] 70.3% | residual activity [40] 85.1% | residual activity [41] 100% | residual activity [42] 94.7% | residual activity [43] 100% | residual activity [44] 73% | residual activity [45] 100%

CCCCN(CCCC)C(=O)CN1C[C@H](c2cc(OC)c3c(c2)OCO3)[C@@H](C(=O)O)[C@@H]1CC(C)(C)CCC [ABT-546]
inactive: residual activity [1] 100% | residual activity [2] 99.7% | residual activity [3] 100% | inhibition [4] -2.13% | residual activity [5] 100% | residual activity [6] 100% | residual activity [7] 100% | residual activity [8] 97% | inhibition [9] 48.5% | residual activity [10] 100% | residual activity [11] 86.7% | residual activity [12] 100% | residual activity [13] 100% | residual activity [14] 100% | residual activity [15] 100% | residual activity [16] 100% | residual activity [17] 100% | residual activity [18] 100% | residual activity [19] 100% | residual activity [20] 92.3% | residual activity [21] 65.3% | residual activity [22] 100% | residual activity [23] 100% | residual activity [24] 100% | residual activity [25] 100% | residual activity [26] 100% | residual activity [27] 100% | residual activity [28] 71.4% | residual activity [29] 50.5% | residual activity [30] 100% | residual activity [31] 100% | residual activity [32] 90.2% | residual activity [33] 90.6% | inhibition [34] -9.94% | residual activity [35] 76.4% | residual activity [36] 100% | residual activity [37] 100% | residual activity [38] 100% | residual activity [39] 100% | residual activity [40] 100% | residual activity [41] 100% | residual activity [42] 100% | residual activity [43] 62.8% | residual activity [44] 100% | residual activity [45] 100%
